{
  "source": "patent US20250199015A1",
  "about": "“CYCLIN-DEPENDENT KINASE 2 INHIBITORS FOR MEDICAL TREATMENT” (INCYCLIX BIO, LLC, priority 2022, published 2025)",
  "key": {"[1]": {"experiment": "Salt screen storage at 40° C./75% RH, XRPD form", "type": "physicochemical", "settings": "ca. 24 hours", "description": "XRPD analysis was carried out on any isolated solids or gums as described in Example 10 below. The XRPD plate, and the isolated solids, were dried at 40° C. for ca. 24 hours and re-analyzed by XRPD. The XRPD plate was further dried at 40° C./75% RH for ca. 24 hours and XRPD analysis was repeated.\nAfter three days, observations were recorded and solids were isolated by centrifugation. The wet solids were analyzed by XRPD. Solids were dried at 40° C. under vacuum for 72 hours and re-analyzed by XRPD. Solids were dried at 40° C./75% RH for 18 hours and re-analyzed by XRPD."}, "[2]": {"system": "T47D human breast carcinoma cells", "experiment": "Crystal violet colony assay", "type": "cell-based", "settings": "300 nM, weeks 2-8", "description": "(§1) The T47D human breast carcinoma cell line was grown in RPMI-1640/1× Glutamax/1× Insulin/10% fetal bovine serum and was plated at 10,000 cells/well in Corning 6-well tissue culture treated plates. Cells were incubated at 37° C. for 24 hours prior to addition of treatment. […] Plates were collected at week 2 and 3, at week 3, 2 plates with only palbociclib were switched to combination treatment. The remaining plates were collected at weeks 5 and 8. Collection was performed by washing wells with PBS before incubating 5 minutes with 0.1% crystal violet/20% methanol. Dye was removed and wells washed 4 times with PBS before being scanned at 1200 dpi. Image J was used to count the % area and colony size for each well (FIG. 8F-I). GraphPad Prism was used for analysis. Cells treated with DMSO control retained large colonies that inhabited the majority of the well surface area from week 3 beyond (FIG. 8F).\nas §1, with “6 well tissue culture treated plates. The BT474 human breast carcinoma cell line was grown in DMEM/1× Glutamax/1× Insulin/10% fetal bovine serum and was plated at 25,000 cells/well in Corning 6 well” for “6-well”, “CDK4/6i” for “palbociclib”, “well. Graph pad” for “well (FIG. 8F-I). GraphPad Prism”, “analysis.” for “analysis. Cells treated with DMSO control retained large colonies that inhabited the majority of the well surface area from week 3 beyond (FIG. 8F).”\nThe T47D human breast carcinoma cell line was grown in RPMI-1640/1× Glutamax/1× Insulin/10% fetal bovine serum and was plated at 10,000 cells/well in Corning 6 well tissue culture treated plates. Cells were incubated at 37° C. for 24 hours prior to addition of treatment. […] Plates were collected at weeks 2 and 3. Collection was performed by washing wells with PBS before incubating 5 minutes with 0.1% crystal violet/20% methanol. Dye was removed and wells washed 4 times with PBS before being scanned at 1200 dpi. Image J was used to count the percent area and colony size for each well and Graph pad was used for analysis."}, "[3]": {"system": "T47D parental and therapy-resistant cells", "experiment": "Cell cycle by BrdU flow cytometry in therapy-resistant cells", "type": "cell-based, human", "description": "The therapy resistant cells were previously incubated with abemaciclib, fulvestrant, and/or palbociclib for prolonged periods to the point of developing drug resistance. Cells were plated in Corning 6 well tissue culture treated plates. Cells were treated for 7 days. Media was spiked with 10 μM BrdU prior to collection. Cells were washed in PBS, trypsinized, collected and centrifuged at 300 RCF for 5 mins. Cells were resuspended in cell culture media and transferred into a 96 well V-bottom plate with roughly 300,000 cells per well. Cells were then stained using the Near-IR Fixable Viability Stain (Invitrogen Cat. L34976) for 20 mins at room temperature, protected from light. Cells were fixed and permeabilized using eBioscience FoxP3/Transcription Factor Staining Buffer Set (Cat. 00-5523-00). DNA was denatured using 2N HCl+0.5% (v/v) Triton X-100 for 30 mins room temperature, agitating every 5-10 mins. The acid was neutralized using 0.1M Na2B4O7·10H2O (pH 8.5) followed by 0.5% BSA in PBS. Cells were then stained with BrdU antibody (Clone 3D4, BioLegend Cat. 364118) for 1 hour at room temperature. Prior to acquisition on the BD A3 Symphony, DNA was stained for 30 minutes using FxCycle Violet ReadyFlow Reagent.\nCell staining was then conducted to monitor cellular proliferation and perform cell cycle analysis of these therapy-resistant cells. […] Similarly, abemaciclib- and fulvestrant-resistant (LYFR) cells administered abemaciclib and fulvestrant were not substantially arrested in the G1 phase (FIG. 147H)."}, "H526 cells": {"system": "H526 cells", "experiment": "CellTiter Glo cell proliferation assay (single agent and chemotherapy combination)", "type": "cell-based, human", "settings": "6 days", "description": "(§2) Plates returned to incubator for six additional days. On day six post dosing, plates were removed and treated with CellTiter Glo reagent following manufacturer's specifications. Plates incubated 45 minutes at room temperature and run on a Biotek luminometer with 1 sec/well detection. Results were converted to Microsoft Excel and transferred to GraphPad Prism for analysis.\nCells were plated at 250 cells per well in white wall/clear bottom plates and incubated overnight. […] Plates returned to the incubator for six additional days. On day six post dosing, plates were removed and treated with CellTiter Glo reagent following manufacturer's specifications. Plates incubated 45 minutes at room temperature and run on a Biotek luminometer with 1 sec/well detection. Results were converted to Microsoft Excel and transferred to GraphPad Prism for analysis.\n(§3) Dose curves ranged from 300 pM to 10 μM in triplicate and treatments lasted for 6 days. Plates were removed from incubator at each specified timepoint and treated with CellTiter-Glo (Promega, Inc) following manufacturer specifications. Plates were then read on CLARIOstar luminometer with 1 sec/well integration.\n(§4) Dose curves ranged from 300 pM to 10 μM in triplicate and treatments lasted for 6 days. Plates were removed from incubator at each specified timepoint and treated with CellTiter-Glo (Promega, Inc) following manufacturer specifications. Plates were then read on CLARIOstar luminometer with 1 sec/well integration. Results were converted to Microsoft Excel and transferred to GraphPad Prism for Analysis."}, "H69 (NCIH69) cells": {"system": "H69 (NCIH69) cells", "experiment": "CellTiter Glo cell proliferation assay (single agent and chemotherapy combination)", "type": "cell-based, human", "settings": "6 days", "description": "as §2, §3, §4"}, "SHP77 cells": {"system": "SHP77 cells", "experiment": "CellTiter Glo cell proliferation assay (single agent and chemotherapy combination)", "type": "cell-based, human", "settings": "6 days", "description": "as §2, §3, §4"}},
  "note": "Marks after values point to notes of the source that are not given here.",
  "data": [
    {"smiles": "NS(=O)(=O)c1ccc(Nc2ncc3cc4n(c3n2)C2(CCCCC2)C(=O)NN4)cc1.O=C(O)CC(O)(CC(=O)O)C(=O)O", "note": "[citrate Pattern 2]", "values": [
      {"measurement": "XRPD form after storage at 40° C./75% RH", "setting": "[1]; listed as Citric Acid Salt Pattern 2", "result": "new poorly crystalline pattern designated Pattern 4"}
    ]},
    {"smiles": "CC(=O)c1c(C)c2cnc(Nc3ccc(N4CCNCC4)cn3)nc2n(C2CCCC2)c1=O", "note": "[palbociclib, reference compound]", "values": [
      {"measurement": "colony size and percent plate area", "setting": "[2]", "result": "cells expanded to cover a large percentage of the plate area"}
    ]},
    {"smiles": "CCN1CCN(Cc2ccc(Nc3ncc(F)c(-c4cc(F)c5nc(C)n(C(C)C)c5c4)n3)nc2)CC1", "note": "[abemaciclib, reference compound]", "values": [
      {"measurement": "cell cycle arrest", "setting": "[3]; abemaciclib-resistant (LYR) cells", "result": "substantially less frequently in the G1 phase"},
      {"measurement": "cell cycle arrest", "setting": "[3]; parental (PAR) cells", "result": "arrested parental (PAR) cell lines in the G1 phase"}
    ]},
    {"smiles": "CC[C@@]1(O)C(=O)OCc2c1cc1n(c2=O)Cc2cc3ccccc3nc2-1", "note": "[camptothecin, (S)-4-ethyl-4-hydroxy-1H-pyrano[3′,4′:6,7]indolizino[1,2-b]quinoline-3,14-(4H, 12H)-dione, reference compound]", "values": [
      {"measurement": "cellular proliferation, chemotherapeutic alone compared with Compound I alone", "setting": "H526 cells", "result": "lower cellular proliferation IC50 values"},
      {"measurement": "cellular proliferation, chemotherapeutic alone compared with Compound I alone", "setting": "H69 (NCIH69) cells", "result": "lower cellular proliferation IC50 values"},
      {"measurement": "cellular proliferation, chemotherapeutic alone compared with Compound I alone", "setting": "SHP77 cells", "result": "lower cellular proliferation IC50 values"}
    ]},
    {"smiles": "Cl.NS(=O)(=O)c1ccc(Nc2ncc3cc4n(c3n2)C2(CCCCC2)C(=O)NN4)cc1", "note": "[HCl Pattern 2]", "values": [
      {"measurement": "XRPD form after storage at 40° C./75% RH", "setting": "[1]", "result": "No form changes were observed"}
    ]},
    {"smiles": "NS(=O)(=O)c1ccc(Nc2ncc3cc4n(c3n2)C2(CCCCC2)C(=O)NN4)cc1.O=C(O)/C=C\\C(=O)O", "note": "[maleate Pattern 2]", "values": [
      {"measurement": "XRPD form after storage at 40° C./75% RH", "setting": "[1]; listed as Maleic Acid Salt Pattern 2", "result": "loss of crystallinity"}
    ]},
    {"smiles": "NS(=O)(=O)c1ccc(Nc2ncc3cc4n(c3n2)C2(CCCCC2)C(=O)NN4)cc1.O=P(O)(O)O", "note": "[phosphate Pattern 6]", "values": [
      {"measurement": "XRPD form after storage at 40° C./75% RH", "setting": "[1]", "result": "formation of amorphous material"},
      {"measurement": "XRPD form after storage at 40° C./75% RH", "setting": "[1]; listed as Phosphoric Acid Salt Pattern 6", "result": "amorphous material"}
    ]},
    {"smiles": "NS(=O)(=O)c1ccc(Nc2ncc3cc4n(c3n2)C2(CCCCC2)C(=O)NN4)cc1.O=C(O)CC(O)(CC(=O)O)C(=O)O", "note": "[citrate Pattern 1]", "values": [
      {"measurement": "XRPD form after storage at 40° C./75% RH", "setting": "[1]; listed as Citric Acid Salt Pattern 1", "result": "poorly crystalline material"}
    ]},
    {"smiles": "NS(=O)(=O)c1ccc(Nc2ncc3cc4n(c3n2)C2(CCCCC2)C(=O)NN4)cc1.O=C(O)/C=C\\C(=O)O", "note": "[maleate Pattern 4]", "values": [
      {"measurement": "XRPD form after storage at 40° C./75% RH", "setting": "[1]; listed as Maleic Acid Salt Pattern 4", "result": "converted to Pattern 6"}
    ]},
    {"smiles": "COc1cccc2c1C(=O)c1c(O)c3c(c(O)c1C2=O)C[C@@](O)(C(=O)CO)C[C@@H]3O[C@H]1C[C@H](N)[C@H](O)[C@H](C)O1", "note": "[doxorubicin, reference compound]", "values": [
      {"measurement": "cellular proliferation, chemotherapeutic alone compared with Compound I alone", "setting": "H526 cells", "result": "better inhibition"},
      {"measurement": "cellular proliferation, chemotherapeutic alone compared with Compound I alone", "setting": "H69 (NCIH69) cells", "result": "better inhibition"},
      {"measurement": "cellular proliferation, chemotherapeutic alone compared with Compound I alone", "setting": "SHP77 cells", "result": "better inhibition"}
    ]},
    {"smiles": "Br.NS(=O)(=O)c1ccc(Nc2ncc3cc4n(c3n2)C2(CCCCC2)C(=O)NN4)cc1", "note": "[HBr Pattern 1]", "values": [
      {"measurement": "XRPD form after storage at 40° C./75% RH", "setting": "[1]", "result": "loss of crystallinity"}
    ]},
    {"smiles": "NS(=O)(=O)c1ccc(Nc2ncc3cc4n(c3n2)C2(CCCCC2)C(=O)NN4)cc1.O=S(=O)(O)c1ccccc1", "note": "[besylate Pattern 3]", "values": [
      {"measurement": "XRPD form after storage at 40° C./75% RH", "setting": "[1]", "result": "loss in crystallinity"}
    ]},
    {"smiles": "NS(=O)(=O)c1ccc(Nc2ncc3cc4n(c3n2)C2(CCCCC2)C(=O)NN4)cc1.O=C(O)/C=C\\C(=O)O", "note": "[maleate Pattern 5]", "values": [
      {"measurement": "XRPD form after storage at 40° C./75% RH", "setting": "[1]; listed as Maleic Acid Salt Pattern 5", "result": "converted to Pattern 1*"}
    ]},
    {"smiles": "CS(=O)(=O)O.NS(=O)(=O)c1ccc(Nc2ncc3cc4n(c3n2)C2(CCCCC2)C(=O)NN4)cc1", "note": "[mesylate Pattern 4]", "values": [
      {"measurement": "XRPD form after storage at 40° C./75% RH", "setting": "[1]", "result": "converted to Pattern 1"}
    ]},
    {"smiles": "CS(=O)(=O)O.NS(=O)(=O)c1ccc(Nc2ncc3cc4n(c3n2)C2(CCCCC2)C(=O)NN4)cc1", "note": "[mesylate Pattern 2]", "values": [
      {"measurement": "XRPD form after storage at 40° C./75% RH", "setting": "[1]", "result": "converted to Pattern 1"}
    ]},
    {"smiles": "CS(=O)(=O)O.NS(=O)(=O)c1ccc(Nc2ncc3cc4n(c3n2)C2(CCCCC2)C(=O)NN4)cc1", "note": "[mesylate Pattern 3]", "values": [
      {"measurement": "XRPD form after storage at 40° C./75% RH", "setting": "[1]", "result": "converted to Pattern 1"}
    ]}
  ]
}
